Assays:
BACE-1 = BACE-1 (Homo sapiens (Human), UniProt P56817); test: BACE-1 Cellular Assay (Aβ in HEK293-APPswe/lon cells); format: cell-based; conditions: 4 hours
Procedure: Assay 3: BACE-1 Cellular Assay
Certain compounds of the invention, identified in the tables herein, were determined to be potent inhibitors of BACE-1 in the following cellular assay. HEK293 cells are obtained from the American Type Culture Collection (ATCC) and stably transfected with the human amyloid precursor protein cDNA containing the FAD Swedish (enhances β-secretase processing) and London (enhances Aβ42 cleavage) mutations. A HEK293 stable clone with Aβ expression (HEK293-APP^swe/lon) is identified and maintained at 37° C., 5% CO2 in the ATCC-recommended growth media supplemented with hygromycin. […] Aβ40 or Aβ42 are measured in 15 μl of media using a mesoscale based ELISA assay. Full length Aβ40 and Aβ42 peptides are captured with the N-terminal specific biotinylated-WO2 monoclonal antibody and detected using either the ruthenylated Aβ40 C-terminal specific monoclonal antibody, G2-10 or the ruthenylated Aβ42 C-terminal specific monoclonal antibody G2-11 respectively. Raw electrochemiluminescnce values are measured using a Mesoscale Sector Imager plate reader and are plotted as a function of compound concentration. IC50 values are interpolated from the data using nonlinear regression analysis (Sigmoidal dose response fit with variable slope) of the data using GraphPad Prism software.

[1] = target: soluble human BACE-1 catalytic domain (Homo sapiens (Human), UniProt P56817); test: BACE-1 Ki Assay (BACE-1 HTRF FRET Assay); format: biochemical; conditions: Assay 1; Ki calculated from IC50 by Cheng-Prusoff
Procedure: Assay 1: BACE-1 Ki Assay (BACE-1 HTRF FRET Assay)
The compounds of the invention were determined to be potent inhibitors of BACE-1 using the following assay.
The following reagents were used in this assay. Na^+-Acetate pH 5.0; 1% Brij-35; Glycerol; Dimethyl Sulfoxide (DMSO); Recombinant human soluble BACE-1 catalytic domain (>95% pure); APP Swedish mutant peptide substrate (QSY7-APP^swe-Eu): QSY7-[…]-Europium-amide.
A homogeneous time-resolved FRET assay can be used to determine IC50 values for inhibitors of the soluble human BACE-1 catalytic domain. This assay monitors the increase of 620 nm fluorescence that resulted from BACE-1 cleavage of an APPswedish APP^swe mutant peptide FRET substrate (QSY7-[…]-Europium-amide). This substrate contains an N-terminal QSY7 moiety that serves as a quencher of the C-terminal Europium fluorophore (620 nm Em). In the absence of enzyme activity, 620 nm fluorescence is low in the assay and increased linearly over 3 hours in the presence of uninhibited BACE-1 enzyme. Inhibition of BACE-1 cleavage of the QSY7-APP^swe-Eu substrate by inhibitors is manifested as a suppression of 620 nm fluorescence.
Varying concentrations of inhibitors at 3× the final desired concentration in a volume of […] are preincubated with purified human BACE-1 catalytic domain (3 nM in 10 μl) for 30 minutes at 30° C. in reaction buffer containing 20 mM Na-Acetate pH 5.0, 10% glycerol, 0.1% Brij-35 and 7.5% DSMO. Reactions are initiated by addition of 10 μl of 600 nM QSY7-APP^swe-Eu substrate (200 nM final) to give a final reaction volume of 30 μl in a 384 well Nunc HTRF plate. The reactions are incubated at 30° C. for 1.5 hours. The 620 nm fluorescence is then read on a Rubystar HTRF plate reader (BMG Labtechnologies) using a […] delay followed by a 400 millisecond acquisition time window. Inhibitor IC50 values are derived from non-linear regression analysis of concentration response curves. Ki values are then calculated from IC50 values using the Cheng-Prusoff equation using a previously determined […] of 8 μM for the QSY7-APP^swe-Eu substrate at BACE-1. The example compounds of the invention were measured in this assay.

[2] = target: purified human Cathepsin-D (Homo sapiens (Human), UniProt P07339); test: Cathepsin-D Assay (time-resolved FRET); format: biochemical; conditions: Assay 4; Ki calculated from IC50 by Cheng-Prusoff;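 note: Europium-labelled peptide substrate with QSY7 quencher, cleavage read as 620 nm fluorescence after 30 min preincubation then 30 min reaction at 30 °C, pH 5.0, inhibition lowers signal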
Procedure: Assay 4: Cathepsin-D Assay
This substrate contains an C-terminal QSY7 moiety that serves as a quencher of the N-terminal Europium fluorophore (620 nm Em). In the absence of enzyme activity, 620 nm fluorescence is low in the assay and increased linearly over 1 hour in the presence of uninhibited Cathepsin-D enzyme. Inhibition of Cathespin D cleavage of the Eu-Aspartyl Protease-QSY7 substrate by inhibitors is manifested as a suppression of 620 nm fluorescence.
Varying concentrations of inhibitors in a volume of 100 nl are preincubated with purified human Cathepsin-D (0.1 nM in 10 μl) for 30 minutes at 30° C. in reaction buffer containing 100 mM Na-Acetate pH 5.0, and 0.02% Brij-35. Reactions are initiated by addition of 10 μl of 100 nM Eu-Aspartyl Protease-QSY7 substrate (50 nM final) to give a final reaction volume of 20 μl in a 384 well Nunc HTRF plate. The reactions are incubated at 30° C. for 30 minutes. The 620 nm fluorescence is then read on a Envision Multilabel plate reader (Perkin-Elmer) using a 200 microsecond delay followed by a 400 microsecond acquisition time window. Inhibitor IC50 values are derived from non-linear regression analysis of concentration response curves.

[3] = target: purified human autoBACE-2 (Homo sapiens (Human), UniProt Q9Y5Z0); test: BACE-2 Assay (BACE-HTRF assay); format: biochemical; conditions: Assay 2; Ki calculated from IC50 by Cheng-Prusoff; read-out: BACE2 Ki
Procedure: The compounds of the invention were determined to be potent inhibitors of BACE-2 using the following assay. Inhibitor IC50s at purified human autoBACE-2 are determined in a time-resolved endpoint proteolysis assay that measures hydrolysis of the QSY7-[…]-Eu-amide FRET peptide substrate (BACE-HTRF assay). BACE-mediated hydrolysis of this peptide results in an increase in relative fluorescence (RFU) at 620 nm after excitation with 320 nm light Inhibitor compounds, prepared at 3× the desired final concentration in 1×BACE assay buffer (20 mM sodium acetate pH 5.0, 10% glycerol, 0.1% Brij-35) supplemented with 7.5% DMSO are pre-incubated with an equal volume of autoBACE-2 enzyme diluted in 1×BACE assay buffer (final enzyme concentration 1 nM) in black 384-well NUNC plates for 30 minutes at 30° C. […] DMSO is present at […] final concentration in the assay. Following laser excitation of sample wells at 320 nm, the fluorescence signal at 620 nm is collected for 400 ms following a 50 μs delay on a RUBYstar HTRF plate reader (BMG Labtechnologies). Raw RFU data is normalized to maximum (1.0 nM BACE/DMSO) and minimum (no enzyme/DMSO) RFU values. IC50 values are determined by nonlinear regression analysis (sigmoidal dose response, variable slope) of percent inhibition data with minimum and maximum values set to 0 and 100 percent respectively. Similar IC50s are obtained when using raw RFU data. The Ki values are calculated from the IC50 using the Cheng-Prusoff equation.

Sequence of soluble human BACE-1 catalytic domain (P56817 75-416): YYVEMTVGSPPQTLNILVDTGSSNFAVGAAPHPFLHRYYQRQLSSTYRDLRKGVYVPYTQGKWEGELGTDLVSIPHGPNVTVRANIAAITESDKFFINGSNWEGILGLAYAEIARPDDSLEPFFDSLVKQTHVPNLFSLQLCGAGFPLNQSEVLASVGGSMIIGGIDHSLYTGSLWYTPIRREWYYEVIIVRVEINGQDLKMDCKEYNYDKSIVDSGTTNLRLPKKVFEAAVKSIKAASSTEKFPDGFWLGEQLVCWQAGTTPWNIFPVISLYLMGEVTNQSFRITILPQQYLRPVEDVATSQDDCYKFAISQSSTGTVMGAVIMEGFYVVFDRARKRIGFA
Sequence of BACE-1 (P56817 46-501): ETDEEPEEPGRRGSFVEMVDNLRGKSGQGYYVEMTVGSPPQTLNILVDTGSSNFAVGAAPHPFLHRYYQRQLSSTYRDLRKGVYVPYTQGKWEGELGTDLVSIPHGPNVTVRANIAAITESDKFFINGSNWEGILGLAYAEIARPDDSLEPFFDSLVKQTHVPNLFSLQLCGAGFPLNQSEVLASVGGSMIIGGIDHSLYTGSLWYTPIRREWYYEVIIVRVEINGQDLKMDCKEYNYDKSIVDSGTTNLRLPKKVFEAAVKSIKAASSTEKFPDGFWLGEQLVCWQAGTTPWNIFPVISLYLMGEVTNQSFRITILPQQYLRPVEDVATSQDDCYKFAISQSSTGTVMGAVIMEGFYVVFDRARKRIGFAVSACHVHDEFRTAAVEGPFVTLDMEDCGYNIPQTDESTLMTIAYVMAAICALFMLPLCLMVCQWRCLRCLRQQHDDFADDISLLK
Sequence of purified human autoBACE-2 (Q9Y5Z0 63-466): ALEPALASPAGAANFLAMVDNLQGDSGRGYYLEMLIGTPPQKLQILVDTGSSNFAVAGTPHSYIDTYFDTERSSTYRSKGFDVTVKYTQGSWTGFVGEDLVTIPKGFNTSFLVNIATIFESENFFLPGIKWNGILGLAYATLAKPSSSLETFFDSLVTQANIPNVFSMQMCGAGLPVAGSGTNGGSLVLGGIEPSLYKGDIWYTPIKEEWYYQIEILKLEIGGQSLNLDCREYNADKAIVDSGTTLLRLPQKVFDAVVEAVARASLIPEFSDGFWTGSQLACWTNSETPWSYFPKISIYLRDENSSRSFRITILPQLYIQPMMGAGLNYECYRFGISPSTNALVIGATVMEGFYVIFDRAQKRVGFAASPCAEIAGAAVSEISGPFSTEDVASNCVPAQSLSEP
Sequence of purified human Cathepsin-D (P07339 65-412): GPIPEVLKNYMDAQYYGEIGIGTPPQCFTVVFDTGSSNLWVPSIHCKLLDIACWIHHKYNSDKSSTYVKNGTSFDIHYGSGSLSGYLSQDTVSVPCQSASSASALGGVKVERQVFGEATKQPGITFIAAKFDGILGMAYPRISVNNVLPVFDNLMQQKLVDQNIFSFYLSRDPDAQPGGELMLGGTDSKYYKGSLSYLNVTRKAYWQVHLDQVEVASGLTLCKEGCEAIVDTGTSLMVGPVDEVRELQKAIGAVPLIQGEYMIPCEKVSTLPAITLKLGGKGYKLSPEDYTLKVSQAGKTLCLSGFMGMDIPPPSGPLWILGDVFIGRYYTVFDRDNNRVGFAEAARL

| SMILES | IC50 (BACE-1) | Ki [1] | Ki [2] | Ki [3] |
| --- | --- | --- | --- | --- |
| CC#CCOc1cnc2c(Nc3cc([C@]4(C)CS(=O)(=O)[C@@](C)(C5CC5)C(N)=N4)c(F)cn3)nccc2c1 [Example 10, 3-(but-2-yn-1-yloxy)-N-{4-[(3R,6S)-6-cyclopropyl-5-imino-3,6-dimethyl-1,1-dioxidothiomorpholin-3-yl]-5-fluoropyridin-2-yl}-1,7-naphthyridin-8-amine] | 0.25 nM | 0.79 nM | > 9400 nM | 0.64 nM |
| CC#CCOc1cnc2c(Nc3cnc(F)c([C@]4(C)CS(=O)(=O)[C@@](CF)(C5CC5)C(N)=N4)c3)nccc2c1 [Example 11, 3-(but-2-yn-1-yloxy)-N-{5-[(3R,6S)-6-cyclopropyl-6-(fluoromethyl)-5-imino-3-methyl-1,1-dioxidothiomorpholin-3-yl]-6-fluoropyridin-3-yl}-1,7-naphthyridin-8-amine] | 4.1 nM | 0.91 nM | 857 nM | 7.5 nM |
| COc1cnc2c(Nc3cnc(F)c([C@]4(C)CS(=O)(=O)[C@@](CF)(C5CC5)C(N)=N4)c3)nccc2c1 [Example 12, N-{5-[(3R,6S)-6-cyclopropyl-6-(fluoromethyl)-5-imino-3-methyl-1,1-dioxidothiomorpholin-3-yl]-6-fluoropyridin-3-yl}-3-methoxy-1,7-naphthyridin-8-amine] | 99 nM | 6.1 nM | 629 nM | 3.3 nM |
| CC#CCOc1cnc2c(Nc3cnc(F)c([C@]4(C)CS(=O)(=O)[C@@](CF)(C5CC5)C(N)=N4)c3)nccc2n1 [Example 13, 2-(but-2-yn-1-yloxy)-N-{5-[(3R,6S)-6-cyclopropyl-6-(fluoromethyl)-5-imino-3-methyl-1,1-dioxidothiomorpholin-3-yl]-6-fluoropyridin-3-yl}pyrido[3,4-b]pyrazin-5-amine] | 6.6 nM | 0.65 nM | 3380 nM | 1.1 nM |
| C[C@@]1(c2cc(Nc3ncnc4cc(Br)cnc34)ccc2F)CS(=O)(=O)[C@@](C)(C2CC2)C(N)=N1 [Example 15, 7-bromo-N-{3-[(3R,6S)-6-cyclopropyl-5-imino-3,6-dimethyl-1,1-dioxidothiomorpholin-3-yl]-4-fluorophenyl}pyrido[3,2-d]pyrimidin-4-amine] | 3.4 nM | 1.8 nM | 321 nM | 0.73 nM |
| C[C@@]1(c2cc(Nc3nccc4cc(Br)cnc34)ccc2F)CS(=O)(=O)[C@@](C)(C2CC2)C(N)=N1 [Example 17, 3-bromo-N-{3-[(3R,6S)-6-cyclopropyl-5-imino-3,6-dimethyl-1,1-dioxidothiomorpholin-3-yl]-4-fluorophenyl}-1,7-naphthyridin-8-amine] | 16 nM | 1.4 nM | 146 nM | 0.41 nM |
| COc1cnc2c(Nc3cc([C@]4(C)CS(=O)(=O)[C@@](C)(C5CC5)C(N)=N4)c(F)cn3)ncnc2c1 [Example 19, N-{4-[(3R,6S)-6-cyclopropyl-5-imino-3,6-dimethyl-1,1-dioxidothiomorpholin-3-yl]-5-fluoropyridin-2-yl}-7-methoxypyrido[3,2-d]pyrimidin-4-amine] | 192 nM | 67 nM | 9300 nM | 21 nM |
| COc1cnc2c(Nc3ccc(F)c([C@]4(C)CS(=O)(=O)[C@@](C)(C5CC5)C(N)=N4)c3)ncnc2c1 [Example 20, (2S,5R)-2-cyclopropyl-5-(2-fluoro-5-((7-methoxypyrido[3,2-d]pyrimidin-4-yl)amino)phenyl)-3-imino-2,5-dimethylthiomorpholine 1,1-dioxide] | 5.3 nM | 3.7 nM | 2160 nM | 2.4 nM |
| C[C@@]1(c2cc(Nc3nccc4cc(O)cnc34)ncc2F)CS(=O)(=O)[C@@](C)(C2CC2)C(N)=N1 [Example 25, (3R,6S)-5-amino-6-cyclopropyl-3-(5-fluoro-2-((3-hydroxy-1,7-naphthyridin-8-yl)amino)pyridin-4-yl)-3,6-dimethyl-3,6-dihydro-2H-1,4-thiazine 1,1-dioxide] | 4.9 nM | 0.89 nM | > 9400 nM | 0.59 nM |
| C[C@@]1(c2cc(Nc3nccc4cc(Cl)cnc34)ncc2F)CS(=O)(=O)[C@@](C)(C2CC2)C(N)=N1 [Example 27, (3R,6S)-5-amino-3-(2-((3-chloro-1,7-naphthyridin-8-yl)amino)-5-fluoropyridin-4-yl)-6-cyclopropyl-3,6-dimethyl-3,6-dihydro-2H-1,4-thiazine 1,1-dioxide] | 180 nM | 10 nM | > 9400 nM | 2.9 nM |
| COc1cnc2c(Nc3cnc(F)c([C@]4(C)CS(=O)(=O)[C@@](C)(C5CC5)C(N)=N4)c3)nccc2c1 [Example 32, (3R,6S)-5-amino-6-cyclopropyl-3-(2-fluoro-5-((3-methoxy-1,7-naphthyridin-8-yl)amino)pyridin-3-yl)-3,6-dimethyl-3,6-dihydro-2H-1,4-thiazine 1,1-dioxide] | 24 nM | 6.9 nM | 650 nM | 2.6 nM |
| C[C@@]1(c2cc(Nc3ccnc4cc(Cl)cnc34)ncc2F)CS(=O)(=O)[C@@](C)(C2CC2)C(N)=N1 [Example 33, (3R,6S)-5-amino-3-(2-((7-chloro-1,5-naphthyridin-4-yl)amino)-5-fluoropyridin-4-yl)-6-cyclopropyl-3,6-dimethyl-3,6-dihydro-2H-1,4-thiazine 1,1-dioxide] | 27 nM | 6.2 nM | 820 nM | 0.82 nM |
| C[C@@]1(c2cc(Nc3ncnc4cc(Br)cnc34)ncc2F)CS(=O)(=O)[C@@](C)(C2CC2)C(N)=N1 [Example 38, (3R,6S)-5-amino-3-(2-((7-bromopyrido[3,2-d]pyrimidin-4-yl)amino)-5-fluoropyridin-4-yl)-6-cyclopropyl-3,6-dimethyl-3,6-dihydro-2H-1,4-thiazine 1,1-dioxide] | 110 nM | 8.2 nM | 3200 nM | 3.8 nM |

Reference: patent US9732088B2, “C2-carbocyclic iminothiazine dioxides as BACE inhibitors, compositions, and their use” (Merck Sharp & Dohme Corp., priority 2014, dated 2017)
